Values of other authors as cited in patent US20140045806A1 (priority 2012, published 2014).

System: vaginal nerve fibers
Details: Pessina, Hoyt et al. 2006; cited from earlier work

| SMILES | Number and size of the nerve terminals in the lamina propria |
| --- | --- |
| CC(=O)[C@H]1CC[C@H]2[C@@H]3CCC4=CC(=O)CC[C@]4(C)[C@H]3CC[C@]12C [progesterone] | no effect |
| C[C@]12CC[C@H]3[C@@H](CCC4=CC(=O)CC[C@@]43C)[C@@H]1CC[C@@H]2O [testosterone] | increases the number and size of the nerve terminals |
